US20090311716A1, “METHODS TO TREAT OR PREVENT HORMONE-RESISTANT PROSTATE CANCER USING siRNA [sequence] FOR PROTOCADHERIN-PC, OR OTHER INHIBITORS OF PROTOCADHERIN-PC EXPRESSION OR ACTIVITY” (THE TRUSTEES OF COLUMBIA UNIVERSITY IN THE CITY OF NEW YORK, priority 2005, published 2009)
Entries after “also recorded” stand apart in the source; their conditions may differ.

Tests used:
Format in all cases: cell-based, human
[1] = system: Tcf-sensitive reporter pTOP (wnt signaling); test: Tcf-sensitive pTOP luciferase reporter assay (wnt signaling) in LNCaP cells; conditions: 7 days in androgen-free medium
Text: FIGS. 5A-5C. siRNAs against PCDH-PC suppress PCDH-PC expression, TCF-mediated transcription and NE transdifferentiation in LNCaP cells grown in androgen-free medium. FIG. 5A. RNAs extracted from LNCaP cells grown in normal medium (Control) or in androgen-free medium (CS-FBS, None) were compared toRNAs from LNCaP cells grown in androgen-free medium transfected with siRNAs against PCDH-PC (181, 190 and 208) or siRNA against lamin by RT-PCR using primers specific for PCDH-PC (Top Panel) or β-actin (Bottom Panel). PCR reaction products were electrophoresed on agarose gels and were visualized after ethidium bromide staining under UV light. FIG. 5B. LNCaP cells cultured in normal medium (Control) were compared to LNCaP cells grown in androgen-free medium for 7 days without or with transfection with siRNA 181 against PCDH-PC or siRNA against lamin for expression of luciferase from the TCF-sensitive reporter pTOP for normalized luciferase activity. FIG. 5C. […]
Expression Vectors, Transfection Protocols and Luciferase/β-Glactosidase Assays. […] Luciferase activity in cell extracts was measured using the Luciferase Assay System of Promega, Inc. (Madison, Wis.). β-galactosidase activity was also measured in the same cell extracts using the β-galactosidase Enzyme Assay System of Promega, Inc. All experiments involving luciferase reporter vectors were done in triplicate for each point.

[2] = system: PCDH-PC; test: Western blot of myc-tagged PCDH-PC in LNCaP cells co-transfected with pPCDH-PC-myc and siRNA; conditions: siRNA 100 nM co-transfected with pPCDH-PC-myc, 48 hrs; listed as #181
Text: FIGS. 4A-4B. siRNAs against PCDH-PC suppress PCDH-PC expression and NE transdifferentiation of LNCaP cells. FIG. 4A. LNCaP cells were transfected with the pPCDH-PC-myc expression vector and were co-transfected with siRNA against human lamin or siRNAs 181, 190 or 208 designed to suppress PCDH-PC expression. A Western blot made against protein extracts from these cells were probed with anti-myc (Top Panel) to identify expression of the 110 kd PCDH myc-tagged protein, anti-β-actin (Middle Panel) or anti-human E-cadherin (Bottom Panel). FIG. 4B. A repeated experiment that includes control LNCaP cells (no transfection) or pCMV-PCDH-myc transfected LNCaP cells co-transfected with siRNAs against lamin or against PCDH-PC (181, 190 or 208). The Western blot was probed for NSE expression (Top Panel) or for β-actin expression (Bottom Panel).
Expression Vectors, Transfection Protocols and Luciferase/β-Glactosidase Assays. PCDH-PC cDNA was inserted into the mammalian expression vectors pcDNA3 (Invitrogen Life Technologies, Inc., Carlsbad, Calif.) or into pCMV-myc (BD Biosciences, Clontech, Inc., Palo Alto, Calif.) so that the PCDH-PC product generated from this vector (pPCDH-PC-myc) has a C-terminal myc tag. An expression vector containing cDNA encoding a mutated (stabilized) form of human β-catenin (Tetsu and McCormick, 1999) was used. A dominant-negative Tcf expression vector used was previously described (Chen et al., 2001). The Tcf-sensitive reporter vector, pTOP and a CMV-promoted β-galactosidase expression vector were obtained from Upstate Biotechnology, Inc. Transfections used for protein or RNA extractions were done in 35 cm^2 dishes with cells plated at 50% density 12-16 hrs prior. […] Luciferase activity in cell extracts was measured using the Luciferase Assay System of Promega, Inc. (Madison, Wis.). β-galactosidase activity was also measured in the same cell extracts using the β-galactosidase Enzyme Assay System of Promega, Inc. All experiments involving luciferase reporter vectors were done in triplicate for each point. […]

[3] = system: Akt; test: Western blot of phosphorylated Akt / MDM2 in LNCaP cells in androgen-free medium; conditions: androgen-free medium 5 days then transfected 2 days
Text: FIG. 15. Proteins were extracted from untransfected LNCaP cells maintained in androgen free medium for 7 days (CS-FBS Control) or from 7-day androgen-free LNCaP cells that were transfected for 48 hrs with β-catenin siRNA (CS-FBS+beta-Cat siRNA) or dominant negative Tcf (CS-FBS+DN-Tcf) or PCDH-PC siRNA 181 (CS-FBS+PCDH-PC siRNA) or lamin siRNA (CS-FBS+lamin siRNA). Equal aliquots of protein were electrophoresed on a polyacrylamide gel and then blotted onto a PVDF filter to produce a Western blot. The same blot was probed with an antibody against Akt protein (top panel) or against phosphorylated Akt (ser 473) (second panel) or with an antibody against MDM2 protein (third panel) or phosphorylated MDM2 protein (bottom panel). […] The blockade of Akt phosphorylation by PCDH-PC siRNA could be involved in the process through which this molecule induces the death of prostate cancer cells under androgen-free conditions. […]
Preparation of cell extracts and western blots. Cells were harvested and protein extracts prepared, quantified and used to prepare Western blots as previously described (Example 1; Yang et al., 2005). […] Recombinant Wnt-1 protein (HA-tagged) was detected with anti-HA antibody (Clontech Inc., Mountain View, Calif.). Antibody binding to the Western blot was detected as previously described (Yang et al., 2005). […]

[4] = system: LNCaP cells; test: Flow cytometry of propidium iodide stained cells, sub-G0 peak (cell death); conditions: for dead cells (sub-G0 peak): LNCaP in androgen-free medium 5 days, then siRNA transfection a further 48 hrs
Experimental: FIG. 18. Selective killing of LNCaP cells grown in androgen-free medium by PCDH-PC siRNA. LNCaP cells grown in normal medium or in androgen-free medium (phenol red-free RPMI supplemented with CS-FBS) for 5 days were transfected with PCDH-PC siRNA (#181) or with lamin siRNA, as indicated for a further 48 hrs. Cells were collected, fixed and stained with propidium iodide and were analyzed by flow cytometry. Bars represent the % population of cells in the sub-G0 peak considered to be apoptotic. The bars are averages based on two measurements under each condition. No siRNAs were untransfected cells.
siRNAs and Transfection of Cultured Human Prostate Cancer Cells. Commercial siRNAs targeting human β-catenin and lamin A were purchased from Dharmacon, Inc. (Chicago, Ill.). Three different siRNAs targeting PCDH-PC were designed using the siRNA Target Finder software program available through Ambion, Inc. (Austin, Tex.). The anti-PCDH-PC siRNAs targeted sequences at position 3043-3062 (#181; SEQ ID NO:4; FIG. 29), 3098-3117 (#190; SEQ ID NO:6; FIG. 31) or 3345-3364 (#208; SEQ ID NO:7; FIG. 32) on the PCDH-PC mRNA. The 21 bp siRNAs were constructed using the 19 bp core sequences described above with 2 nucleotide UU overhangs and these siRNAs were produced and provided by Ambion, Inc. siRNAs were transfected or co-transfected (with other expression vectors as described) into LNCaP cells at 100 nM final concentrations using Lipofectamine 2000 transfection reagent (Invitrogen Life Technologies, Inc.) in serum-free medium as instructed by the manufacturer. 48 hrs after transfection, cells were harvested and extracted for protein or RNA as described below.

**Q.** How did the “induced luciferase expression from pTOP reporter (wnt signaling)” value [1] turn out when “siRNA #181: 21 bp siRNA targeting PCDH-PC mRNA position 3043-3062, 19 bp core with UU overhangs (SEQ ID NO:4) (AAGCATTGAAGCACCAGTGAC; listed as DNA, further chemistry not given here)” was run?
**A.** completely suppressed

**Q.** What about the “expression of myc-tagged PCDH-PC polypeptide” value [2] of the same substance?
**A.** suppressive effects; also recorded: most effective

**Q.** What about the “Akt phosphorylation (pAkt; and MDM2 phosphorylation)” value [3] of the same substance?
**A.** reduced

**Q.** And the “selectivity of cell death induction, androgen-free versus normal medium” value ([4]; LNCaP)?
**A.** specific to cells grown in androgen free medium, not in normal medium

**Q.** What about the “dead cells (sub-G0 peak)” value ([4]; listed as #181) of the same substance?
**A.** approximately 58%

**Q.** And the “dead cells (sub-G0 peak)” value ([4]; listed as PCDH-PC siRNA)?
**A.** 58%

**Q.** What about the “dead cells (sub-G0 peak)” value ([4]; listed as siRNA against PCDH-PC) of the same substance?
**A.** 58%

**Q.** What about the “cell death relative to untransfected cells or cells transfected with lamin siRNA” value ([4]; LNCaP, androgen-free medium 7 days) of the same substance?
**A.** greater than 4 ×
